Assay results from patent US6979747B2, “Antioxidants, preparation processes and their uses” (Centre National de la Recherche Scientifique (CNRS), priority 1999, dated 2005).

Columns and labels:
HIV-1 LAI = experiment: Antiviral activity in quiescent or PHA-P activated PBLs infected with HIV-1 LAI; format: cell-based; settings: quiescent PBLs or PBLs activated by PHA-P
Method: For some experiments, the PBMCs and the PBLs are activated for 48 h with 1 μg/ml of a mitogen, PHA-P (Difco Laboratories). The PBMCs and the PBLs are cultured in medium A (quiescent) or B (activated). The cells are cultured at 37° C. in an atmosphere saturated with moisture under 5% of CO2. The culture supernatants are removed and the culture media are replaced every three or four days. At each renewal of the culture media, the cell viability is evaluated by coloring with trypan blue or by microscopic observation.
The MDMs were infected with the reference isolate with macrophage tropism, HIV-1/Ba-L. The PBMCs and the PBLs were infected with the reference isolate with lymphocyte tropism HIV-1 LAI. The viral stock were formed by amplifying these strains in vitro using umbilical blood mononucleated cells (UBM(s) preactivated with 1 μg/ml of PHA-P and cultured in medium A supplemented by 20 IU/ml of IL-2. In order to remove the soluble factors, such as cytokines, the culture supernatants were ultracentrifuged at 360 000 g for 5 min, and the pellets were resuspended in RPMI 1640. The viral stocks thus formed were subsequently titred using PBMCs activated with PHA-P. The TCID50s (50% Tissue Culture Infectious Dose) were calculated using the Kärber formula.
A million MDMs were infected with 10 000 TCID50s of the HIV-1/Ba-L strain. This amount of virus corresponds to a multiplicity of infection (m.o.i.) equal to 0.01. The excess of virus is removed 24 h after by washing with cells using RPMI 1640. […]
The viral replication is measured by assaying the RT activity in the culture supernatants according to the technique described by F. Rey et al. (Biochem. Biophys. Res. Comm., 1984, 121, 126-133). The radioactivity incorporated during the extension of the complementary strand of a poly-rA synthetic matrix in the presence of an oligo-dT12-18 primer and of a radiolabeled substrate, [^3H-methyl]thymidine-5′-triphosphate ([^3H]TPP), makes it possible to assay the enzymatic activity of RT. […] The β radioactivity is quantified by means of a scintillation counter (Packard Bell). […]

GSH [1] = experiment: Intracellular GSH in MDMs stimulated with LPS and IFN-γ; format: cell-based, human; settings: MDMs stimulated with LPS (1 μg/ml) and IFN-γ (100 IU/ml)
Method: The intracellular GSH was assayed by means of the assay kit sold by Cayman. This method for assaying glutathione is an adaptation of that described by O. W. Griffith et al. (1980). Tumor necrosis factor (TNF-α), like the oxygen-comprising or nitrogen-comprising radical components, plays a major role in the apoptotic processes associated with infection the HIV. Furthermore, the radical components can promote the synthesis of this proinflammatory cytokine. For this reason, the effects of I-152 in decreasing the synthesis of TNF-α were thus looked for in MDMs stimulated by a bacterial lipopolysaccharide and interferon (IFN-γ).

HIV-1/Ba-L = experiment: Antiviral activity in human spleen macrophages infected with HIV-1/Ba-L; format: cell-based; settings: Human immunodeficiency virus 1, BAL, Macrophage, read-out: concentration that decreases HIV replication by 50%
Source text: (§1) The spleen is dissected and sieved and then the mononuclear cells are isolated using a density gradient, on a Ficoll cushion. The monocytes/macrophages are obtained by adherence to the plastic. The monocytes were allowed to differentiate into macrophages for 7 days, at which time they were infected.
Retroviral replication within this cell population, and thus the effectiveness of a molecule such as I-152, is conditioned partly by the level of cell differentiation. It was therefore important to make sure of the antiviral effectiveness of I-152 in monocytes/macrophages with a degree of maturation which can be different from that of MDMs. We have thus evaluated the antiviral activity of I-152 and its ability to regenerate the intracellular level of GSH in spleen macrophages. In this cell populations, the HIV-1/Ba-L strain also replicates at high […]. […] This is because the concentration of 38 μM decreases HIV replication by 50% in this spleen cell population (table III). […] It should be noted that, in the spleen macrophages, as in the macrophages derived from blood monocytes, infection by HIV leads to a deficiency of GSH (MDM; FIG. 16).

MDMs = experiment: Cytotoxicity with respect to MDMs (neutral red); format: cell-based, human; settings: MDMs
Method: These tests are carried out systematically in parallel with the evaluation of the antiviral activity. In view of the oxidation/reduction capacity of the molecules tested, the test with the tetrazolium salt, which measures the activity of mitochondrial dehydrogenases, cannot be used.
Neutral red (NR) is a vital dye which makes it possible to measure the viability of adherent cells, such as MDMs. 600 μl of culture supernatant are removed and replaced with 400 μl of an NR solution (0.001% m/v in phosphate buffer, PBS, Boehringer Mannheim), filtered at 0.45 μm. The cells were incubated for 1 h at 37° C. and are subsequently washed (2×1 ml of PBS). The cells are then lysed at −20° C. with 200 μl of a 50% ethanol mixture comprising 1% of glacial acetic acid. The OD is measured twice with 100 μl of solution using a spectrophotometer.

GSH [2] = experiment: Intracellular concentration of GSH in spleen macrophages; format: cell-based, human
Method: as §1
The intracellular GSH was assayed by means of the assay kit sold by Cayman. This method for assaying glutathione is an adaptation of that described by O. W. Griffith et al. (1980).

CC(=O)N[C@@H](CS)C(=O)NCCSC(C)=O [I-152, N-(N-acetyl-L-cysteinyl)-S-acetylcysteamine]
antiviral activity (in words) (HIV-1 LAI): inhibits viral replication | concentration of GSH (in words) (GSH [1]): increases the concentration of GSH | EC50 (HIV-1/Ba-L): 38 µM | cytotoxicity (in words) (MDMs; 500 μM (10 times the 50% effective dose)): not cytotoxic | cytotoxicity at antiviral doses (in words) (MDMs; antiviral doses): not cytotoxic | concentration from which the GSH increase is saturated (GSH [2]): ≥ 250 µM | intracellular level of GSH (in words) (GSH [2]): increases the intracellular level of GSH
